Experimental findings from US9753034B2, “Process for the identification of a compound which inhibits the binding of the first bromodomain of each of human BRD-2, BRD-3, and BRD-4” (GLAXOSMITHKLINE LLC, priority 2009, dated 2017) are described below.

Assay [1] addresses T1, Bromodomain BRD-2 (1-473) (Homo sapiens, UniProt P25440).
T1 construct: Recombinant Human Bromodomains (BRD-2 (1-473), BRD-3 (1-435) and BRD-4 (1-477)); six-His tag (N); made in house; host or cells: E. coli (pET15b vector)
In words: Fluorescence Anisotropy Binding Assay, BRD-2. To be noted: displacement of fluorescent ligand (Reference compound K) 5 nM, BRD-2 75 nM; read-out: pIC50 in the BRD-2 assay (converted). As to the method:
(§1) Fluorescence Anisotropy Binding Assay
(§2) All data was normalized to the mean of 16 high and 16 low control wells on each plate. A four parameter curve fit of the following form was then applied: y=a+((b−a)/(1+(10^x/10^c)^d)
(§3) Where ‘a’ is the minimum, ‘b’ is the Hill slope, ‘c’ is the pIC50 and ‘d’ is the maximum.
(§4) The His-tagged Bromodomain was extracted from E. coli cells using 0.1 mg/ml lysozyme and sonication. […] Further purification was completed by Superdex 200 prep grade size exclusion column. Purified protein was stored at −80 C in 20 mM HEPES pH 7.5 and 100 mM NaCl.
(§5) 10 μl of this reaction mixture was added using a micro multidrop to wells containing 100 nl of various concentrations of test compound or DMSO vehicle (1% final) in Greiner 384 well Black low volume microtitre plate and equilibrated in dark 60 mins at room temperature.
On the technique in general: In fluorescence polarisation assays a small probe gives low polarisation when free and higher when bound to something large.

The target of assay [2] is T2, Bromodomain BRD-3 (1-435) (Homo sapiens, UniProt Q15059).
T2 construct: Recombinant Human Bromodomains (BRD-2 (1-473), BRD-3 (1-435) and BRD-4 (1-477)); six-His tag (N); made in house; host or cells: E. coli (pET15b vector)
T2 sequence (Q15059 1-435): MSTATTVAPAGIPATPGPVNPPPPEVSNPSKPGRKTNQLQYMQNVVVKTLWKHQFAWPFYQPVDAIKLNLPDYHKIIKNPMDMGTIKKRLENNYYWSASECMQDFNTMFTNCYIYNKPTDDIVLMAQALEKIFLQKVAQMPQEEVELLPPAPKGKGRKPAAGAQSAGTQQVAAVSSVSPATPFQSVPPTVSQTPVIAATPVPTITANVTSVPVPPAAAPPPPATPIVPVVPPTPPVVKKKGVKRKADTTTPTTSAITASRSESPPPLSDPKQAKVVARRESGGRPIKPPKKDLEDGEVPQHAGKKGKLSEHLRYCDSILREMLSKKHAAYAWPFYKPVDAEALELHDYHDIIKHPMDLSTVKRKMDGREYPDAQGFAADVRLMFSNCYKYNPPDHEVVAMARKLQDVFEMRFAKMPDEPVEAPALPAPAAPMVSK
In words: Fluorescence Anisotropy Binding Assay, BRD-3. To be noted: displacement of fluorescent ligand (Reference compound K) 5 nM, BRD-3 75 nM; read-out: pIC50 in the BRD-3 assay (converted). The protocol:
as §1, §2, §3, §4, §5

The target of assay [3] is Bromodomain BRD-4 (1-477) (Homo sapiens, UniProt O60885). In words: biochemical. To be noted: pIC50 in the BRD-4 assay, displacement of fluorescent ligand (Reference compound K) 5 nM, BRD-4 75 nM. As to the method: as §1, §2, §3, §4, §5

T1 sequence (P25440 1-473): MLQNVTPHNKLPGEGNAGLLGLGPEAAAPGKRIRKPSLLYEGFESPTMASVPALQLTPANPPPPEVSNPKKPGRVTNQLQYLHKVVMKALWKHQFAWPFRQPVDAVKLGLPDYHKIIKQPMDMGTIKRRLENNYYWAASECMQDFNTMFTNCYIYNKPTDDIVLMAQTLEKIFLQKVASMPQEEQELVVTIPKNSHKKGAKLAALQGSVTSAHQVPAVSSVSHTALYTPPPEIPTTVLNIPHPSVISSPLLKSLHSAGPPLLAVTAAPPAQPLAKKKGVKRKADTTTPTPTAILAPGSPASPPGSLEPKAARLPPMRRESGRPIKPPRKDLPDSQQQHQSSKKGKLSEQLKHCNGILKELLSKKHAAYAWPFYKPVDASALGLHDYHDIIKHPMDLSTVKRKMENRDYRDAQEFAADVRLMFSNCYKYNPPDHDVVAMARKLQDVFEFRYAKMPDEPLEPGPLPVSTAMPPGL

For `CC(=O)N1c2ccc(-c3ccc(C(=O)O)cc3)cc2[C@H](Nc2ccc(Cl)cc2)C[C@@H]1C` [Compound (II), 4-{(2S,4R)-1-acetyl-4-[(4-chlorophenyl)amino]-2-methyl-1,2,3,4-tetrahydro-6-quinolinyl}benzoic acid], the IC50 in assay [1] and in assay [2] was at most 316 nM throughout.
`CNCc1ccc(-c2ccc3c(c2)[C@H](NC(=O)OC(C)C)C[C@H](C)N3C(C)=O)cc1` [Compound (IV), 1-methylethyl ((2S,4R)-1-acetyl-2-methyl-6-{4-[(methylamino)methyl]pheny}-1,2,3,4-tetrahydro-4-quinolinyl)carbamate]: the IC50 in assay [1], in assay [2] and in assay [3] was at most 1000 nM each time.
